Values quoted from earlier work as cited in patent US20180214453A1, “RIVAROXABAN PHARMACEUTICAL COMPOSITIONS” (INTERQUIM, S.A., priority 2015, published 2018).

What was measured:
[1] = CHMP assessment report for Xarelto, slightly soluble
[2] = according to WO05060940 A2, practically insoluble

Structure (SMILES): O=C(NC[C@H]1CN(c2ccc(N3CCOCC3=O)cc2)C(=O)O1)c1ccc(Cl)s1 [Rivaroxaban, 5-chloro-N-({(5S)-2-oxo-3-[4-(3-oxomorpholin-4-yl)phenyl]-1,3-oxazolidin-5-yl}methyl)thiophene-2-carboxamide]
- solubility in organic solvents [1]: 1000 to 10000 µg/mL
- solubility in water [2]: about 7 mg/L
